The values that follow come from patent US20230167437A1, “COMPOSITIONS FOR TREATING CANCER WITH KRAS MUTATIONS AND USES THEREOF” (Aadigen, LLC, priority 2020, published 2023).

Type in all cases: cell-based, human
One data set concerns KRAS 34G>T mutant G12C. The data set can be described thus: Indel frequencies at the endogenous target sequences (T7E1 / deep sequencing) after ADGN/Cas9 mRNA/gRNA transfection. To be noted: for indel frequencies: deep sequencing, 72 hours after transfection, Cas9 mRNA 0.1 μg, gRNA 0.2 μg. On the procedure: (§1) Complex formation with mRNA:gRNA: ADGN peptide/mRNA/gRNA particles were prepared at a 20:1:1 molar ratio. ADGN/Cas9mRNA/sgRNA complexes were prepared at a 20/1/1 molar ratio with 0.5 μg mRNA: 1.5 μg sgRNA and 5% Glucose or DMEM (example for 96 well plates). […] Premixed Cas9 mRNA/gRNA were prepared in sterile water at room temperature in a glass vial (1-4 ml). ADGN-peptide solution was added dropwise (1 drop/sec) under magnetic agitation at 400 rpm to obtain a 1:2 ratio, and incubated for 30 min at room temperature or 37° C. Just before transfection, 150 μl Glucose or DMEM was added and the solution was mixed under magnetic agitation at 400 rpm for 1 minute. Then the solution was incubated for 5 min at 37° C. Then the complexes was ready for cell transfection or IV administration. Prior to IV administration, complexes were diluted in sucrose 5% solution.
(§2) Transfection protocol. The following protocols are reported for 24/48/96 well plate format transfection. Cells should be trypsinized and seeded a day prior transfection Cells were cultured in Dulbecco's Modified Eagle's Medium (DMEM), supplemented with 2 mM glutamine, 1% antibiotics (streptomycin 10,000 μg/mL, penicillin, 10,000 IU/mL) and 10% (w/v) foetal calf serum (FCS), at 37° C. in a humidified atmosphere containing 5% CO2. 96 well plates seeded with 50,000 cells, the day prior transfection, grown to 60-80% confluence and set up to be at around 70% confluence at the day of transfection. Before transfection, cells are washed twice with DMEM (without FBS and pen/strep) (100 μl/well). Cells were then overlaid with 25 μl of complex solution, mixed gently and incubated for 10 min at 37° C.+5% CO2. 50 μl of fresh DMEM (without FBS and Antibiotics) was added and cells were incubated for 2 h at 37° C.+5% CO2 (time of exposure can be adjusted based on sensitivity of the cells). 250 μL of DMEM (containing 10% FCS and 1% antibiotics) were then added without removing the overlay of ADGN peptide/mRNA complexes. Cells were returned to the incubator (37° C., 5% CO2) and analyzed 48 hours to 72 hours post transfection.
(§3) Eight different gRNAs targeting KRAS 34G>T mutant G12C (gRNA34T1, gRNA34T2, gRNA34T3, gRNA34T4, gRNA34T5, gRNA34T6, gRNA34T7 and gRNA34T8) were evaluated on MIA-PACA, H23, H358, H29 and PANC1 cells. Cas9 mRNA (0.1 μg) and gRNA (0.2 μg) were associated with ADGN peptide at molar ratio 20/1 (peptide/nucleic acid). MIA-PACA, H23, H358, PANC1 and HT29 cells were cultured in 48 well plate format and treated with free mRNACas9-gRNA, or ADGN/mRNACas9:gRNA complex. Indel frequencies at the endogenous target sequences was evaluated 72 hours after transfection by either T7E1 method or deep sequencing. Cell proliferation was analyzed over a period of 5 days using CellTiter Glow kits on GlowMax (Promega).
(§4) In order to confirm the specificity of sgRNAs targeting G12V, G12C or G12D KRAS mutation, gRNA35T3 targeting G12V, gRNA34T6 targeting G12C, and gRNA35A5 targeting G12D were evaluated on a large panel of cancer cells harboring different KRAS mutations including SW403, SW480, PANC1, PK-45H, PK-1, MIA-PACA, H23, H358, HT-29, HS-68 and LS513. Cas9 mRNA (0.2 μg) and gRNA (0.4 μg) were associated with ADGN peptide at molar ratio 20/1 (peptide/nucleic acid). Cells were cultured in 48 well plate format and treated with free mRNACas9-gRNA, or ADGN/mRNACas9:gRNA complex. Indel frequencies at the endogenous target sequences was evaluated 72 hours after transfection by either T7E1 method and cell proliferation was analyzed over a period of 5 days using CellTiter Glow kits on GlowMax (Promega).

The test system of data set [1] is Mia-PACA, H23 and H358 cells. Briefly: Cell proliferation over 5 days (CellTiter Glow). As to conditions: Mia-PACA, H23, H358 vs KRAS WT HT29 or HS-68 and PANC1 cells. On the procedure:
as §2, §3

The subject of another data set is KRAS 35G>T mutant G12V. The data set can be described thus: Indel frequencies at the endogenous target sequences (T7E1 / deep sequencing) after ADGN/Cas9 mRNA/gRNA transfection. To be noted: for indel editing and disruption of G12V mutant KRAS (FIG. 1A): SW403, SW480 vs wild type KRAS HT29 cells, T7E1; for indel frequencies: deep sequencing, 72 hours after transfection, Cas9 mRNA 0.15 μg, gRNA 0.2 μg, ADGN-100. The protocol: as §1, §2
(§5) Nine different gRNAs targeting KRAS 35G>T mutant G12V (gRNA35T1, gRNA35T2, gRNA35T3, gRNA35T4, gRNA35T5, gRNA35T6, gRNA35T7, gRNA35T8 and gRNA35T9 (see FIG. 18)) were evaluated on SW403 and SW480 cancer cells harboring G12V KRAS mutation. Cas9 mRNA (0.15 μg) and gRNA (0.2 μg) were associated with ADGN-peptides as reported in experimental procedure. SW403, SW480 and HT-29 cells were cultured in 48 well plate format and treated with free mRNACas9-gRNA, or ADGN-100/mRNACas9:gRNA complex. Indel frequencies at the endogenous target sequences was evaluated 72 hours after transfection by either T7E1 method and by deep sequencing. Cell proliferation was analyzed over a period of 5 days using CellTiter Glow kits on GlowMax (Promega).
as §4

Another data set deals with SW403 and SW480 cells. Briefly: Cell proliferation over 5 days (CellTiter Glow). As to conditions: SW480 and SW403 cells vs HT29 cells harboring KRAS WT. The protocol: as §2, §5
The subject of data set [2] is PANC1, PK1, LS513 and PK-45H cells. Briefly: Cell proliferation over 5 days (CellTiter Glow). To be noted: PANC1, PK1, LS513, PK-45H vs HT29 or HS-68 cells harboring KRAS WT. The protocol:
as §2
(§6) Nine different gRNAs targeting KRAS 35G>A mutant G12D (gRNA35A1, gRNA35A2, gRNA35A3, gRNA35A4, gRNA35A5, gRNA35A6; gRNA35A7, gRNA35A8, gRNA35A9) were evaluated on LS513, Panc1, PK-45H, and PK1 cancer cells harboring G12D KRAS mutation. Cas9 mRNA (0.1 μg) and gRNA (0.2 μg) were associated with ADGN-peptide at molar ratio 20/1 (peptide/nucleic acid). LS513, Panc1, PK-45H, PK1, HS-68 and HT-29 cells were cultured in 48 well plate format and treated with free mRNACas9-gRNA, or ADGN/mRNACas9:gRNA complex. Indel frequencies at the endogenous target sequences was evaluated 72 hours after transfection by either T7E1 method or deep sequencing. Cell proliferation was analyzed over a period of 5 days using CellTiter Glow kits on GlowMax (Promega).

Another data set has as its system wild type KRAS. Briefly: Indel frequencies at the endogenous target sequences (T7E1 / deep sequencing) after ADGN/Cas9 mRNA/gRNA transfection. To be noted: for indel frequencies: deep sequencing, 72 hours after transfection, Cas9 mRNA 0.1 μg, gRNA 0.2 μg. The protocol: as §1, §2, §5, §6
Another data set deals with KRAS 35G>A mutant G12D. The description is as above. To be noted: for disruption of G12D mutant KRAS (FIG. 2A): G12D cancer cells vs wild type KRAS cells (HT29 or HS-68); for indel frequencies: deep sequencing, 72 hours after transfection, Cas9 mRNA 0.1 μg, gRNA 0.2 μg. On the procedure:
as §1, §2, §6, §4

Where [3] appears, read: SW403 cells (heterozygous 35G>T).

For “TTG TGG TAG TTG GAG CTT G (guide TTGTGGTAGTTGGAGCTTG; sgRNA, chemical modifications not given here, further chemistry not given here) [gRNA34T5, sgRNA target KRAS G12C mutation (34G>T); PAM TGG]”, the figures for the indel frequencies with KRAS 34G>T mutant G12C (H23 cells), with KRAS 34G>T mutant G12C (H358 cells) and in the data set with KRAS 34G>T mutant G12C (Mia-PACA cells) were 68%, 67% and 75%, respectively. In addition, the “indel editing and disruption of G12C mutant KRAS (FIG. 3A)” value with KRAS 34G>T mutant G12C (Mia-PACA, H23, H358 vs HT29 and PANC1 cells) was “induced indel editing and efficient disruption of G12C mutant KRAS”. The “inhibition of proliferation or survival (FIG. 3B)” value in data set [1] is “specifically inhibit proliferation or survival of Mia-PACA, H23 and H358 cells”.
Turning to “GTT GGA GCT GTT GGC GT (guide GTTGGAGCTGTTGGCGT; chemistry not given here) [gRNA35T6, sgRNA target KRAS G12V mutation (c.35G>T); PAM AGG]”, in the data set with KRAS 35G>T mutant G12V, the “indel editing and disruption of G12V mutant KRAS (FIG. 1A)” value (“indel editing and disruption … (FIG. 1A)” below) is “specifically induced indel editing and efficient disruption”. In addition, the indel frequencies in the data set on KRAS 35G>T mutant G12V (setting [3]) was 18%; in the data set on KRAS 35G>T mutant G12V (SW480 cells (homozygous 35G>T)) it was 39%. In addition, in the data set on SW403 and SW480 cells, the “inhibition of proliferation or survival (FIG. 1B)” value (“inhibition … (FIG. 1B)” below) is “specifically inhibit proliferation or survival of SW480 and SW403 cells”.
On to “GGTAGTTGGAGCTGATGGCG (guide GGTAGTTGGAGCTGATGGCG; chemistry not given here) [gRNA35A2, sgRNA target KRAS G12D mutation (35G>A); PAM TAG]”, for which the “inhibition of proliferation or survival (FIG. 2B)” value (“inhibition … (FIG. 2B)” below) in data set [2] was “specifically inhibit proliferation or survival of PANC1, PK1, LS513 and PK-45H cells”. Also, the indel frequencies is 6 ± 2% with wild type KRAS (HS68 cells (WT KRAS)); 2 ± 1% with wild type KRAS (HT-29 cells (WT KRAS)); 31 ± 2% with KRAS 35G>A mutant G12D (LS513 cells); 58 ± 4% in the data set with KRAS 35G>A mutant G12D (PANC1 cells); 48 ± 2% in the data set on KRAS 35G>A mutant G12D (PK1 cells); 52 ± 5% in the data set on KRAS 35G>A mutant G12D (PK-45H cells). Further, the “disruption of G12D mutant KRAS (FIG. 2A)” value with KRAS 35G>A mutant G12D was “induced efficient disruption of G12D mutant KRAS”.
For “GTAGTTGGAGCTGTTGGCGT (guide GTAGTTGGAGCTGTTGGCGT; chemistry not given here) [gRNA35T8, sgRNA target KRAS G12V mutation (c.35G>T); PAM AGG]”, in the data set on KRAS 35G>T mutant G12V, the “indel editing and disruption … (FIG. 1A)” value was “specifically induced indel editing and efficient disruption”. Moreover, the indel frequencies in the data set with KRAS 35G>T mutant G12V (setting [3]) is 40%; with KRAS 35G>T mutant G12V (SW480 cells (homozygous 35G>T)), 51%. Moreover, the “inhibition … (FIG. 1B)” value in the data set on SW403 and SW480 cells is “specifically inhibit proliferation or survival of SW480 and SW403 cells”.
“GTT GGA GCT GAT GGC GT (guide GTTGGAGCTGATGGCGT; chemistry not given here) [gRNA35A6, sgRNA target KRAS G12D mutation (35G>A); PAM AGG]”: the “inhibition … (FIG. 2B)” value in data set [2] was “specifically inhibit proliferation or survival of PANC1, PK1, LS513 and PK-45H cells”. The indel frequencies with wild type KRAS (HS68 cells (WT KRAS)) is 2 ± 1%; in the data set with wild type KRAS (HT-29 cells (WT KRAS)), 5 ± 1%; with KRAS 35G>A mutant G12D (LS513 cells) it was 32 ± 5%; with KRAS 35G>A mutant G12D (PANC1 cells), 60 ± 2%; in the data set with KRAS 35G>A mutant G12D (PK1 cells) it was 37 ± 0.4%; in the data set with KRAS 35G>A mutant G12D (PK-45H cells) it was 48 ± 1%. The “disruption of G12D mutant KRAS (FIG. 2A)” value with KRAS 35G>A mutant G12D is “induced efficient disruption of G12D mutant KRAS”.
For the sequence “TGGTAGTTGGAGCTGTTGGCGT (guide TGGTAGTTGGAGCTGTTGGCGT; chemistry not given here) [gRNA35T1, sgRNA target KRAS G12V mutation (c.35G>T); PAM AGG]”, the “indel editing and disruption … (FIG. 1A)” value in the data set on KRAS 35G>T mutant G12V was “specifically induced indel editing and efficient disruption”. Further, the values for the indel frequencies with KRAS 35G>T mutant G12V (setting [3]) and in the data set on KRAS 35G>T mutant G12V (SW480 cells (homozygous 35G>T)) were 35% and 57%, respectively. Besides, in the data set with SW403 and SW480 cells, the “inhibition … (FIG. 1B)” value is “specifically inhibit proliferation or survival of SW480 and SW403 cells”.
On to “CTTGTGGTAGTTGGAGCTGA (guide CTTGTGGTAGTTGGAGCTGA; chemistry not given here) [gRNA35A1, sgRNA target KRAS G12D mutation (35G>A); PAM TGG]”, for which, in data set [2], the “inhibition … (FIG. 2B)” value is “specifically inhibit proliferation or survival of PANC1, PK1, LS513 and PK-45H cells”. Further, the indel frequencies with wild type KRAS (HS68 cells (WT KRAS)) came to 8 ± 1%; in the data set with wild type KRAS (HT-29 cells (WT KRAS)), 10 ± 1%; in the data set on KRAS 35G>A mutant G12D (LS513 cells) it was 17 ± 2%; in the data set with KRAS 35G>A mutant G12D (PANC1 cells), 32 ± 2%; in the data set with KRAS 35G>A mutant G12D (PK1 cells), 12 ± 1%; with KRAS 35G>A mutant G12D (PK-45H cells), 15 ± 0.8%. In the data set with wild type KRAS (HT-29 and HS-68 cells), the “effect on wild type KRAS cells” value is “also affected wild type KRAS cells”.
